{"source": "paper PMC8703450", "about": "“New Heterocyclic Combretastatin A-4 Analogs: Synthesis and Biological Activity of Styryl-2(3H)-benzothiazolones” (Pharmaceuticals, 2021)", "key": {"[1]": {"test_system": "EA.hy926 cells", "assay": "MTT cytotoxicity / growth inhibition assay, EA.hy926", "assay_type": "cell-based, human", "method": "The endothelial cell line (EA.hy926) was kindly provided by Dr. C-J.S. Edgell—University of North Carolina, USA. Cells were cultured in 4.5 g/L D-Glucose DMEM/F12 medium, supplemented with 10% fetal bovine serum (FBS, Cytogen GmBH, Greven, Germany) and 100 U/mL penicillin and streptomycin (Lonza BioWhitaker, Verviers, Belgium). The other cell lines used are described in Table S3.1. Cell cultures were maintained in an incubator at 37 °C with 95% humidity and 5% CO2 and were routinely found free of mycoplasma.\nAll tested compounds were dissolved in DMSO at 25 mM initial concentration and diluted with medium to obtain the working concentrations (0.01 nM–250 µM). Serial drug dilutions were prepared in medium immediately before each experiment. The DMSO working concentration in the medium was […]. For the MTT assay, cells were seeded into 96-well microtitre plates at a density of 1 × 10^4 in 100 µL complete medium per well. They were further incubated for 24 h, followed by treatment with CA-4 analogs up to 72 h. Cell viability was determined using the MTT assay. Ten µL of MTT solution (5 mg/mL) was added to each well and further incubated for 3 h at 37 °C. To dissolve the formazan product, 100 µL/well of 99.5% isopropanol was added. Cell viability was determined by measuring absorbance at 550/630 nm using a DTX880 plate reader (Beckman Coulter, USA). Results, expressed as concentrations that inhibit 20% (IC20), 50% (IC50), and 80% (IC80) of cell growth, were calculated using GraphPad Prism 8.0.1."}, "[2]": {"test_system": "rhodamine-labeled α,β-tubulin", "assay": "Ex vivo rhodamine-tubulin polymerization (fluorescence microscopy)", "settings": "20 μM, 37 °C, 45 min", "quoted_text": "TAMRA-Tubulin (TL590M, Cytoskeleton) diluted in GTB buffer (PEM, 10% glycerol, 1 mM GTP) was mixed with unlabeled α,β-tubulin (T240, Cytoskeleton) at a ratio of 1:3 (v/v) to a concentration of 4.0 mg/mL. […] Samples were then centrifuged for 20 min at 30,000× g. The pellets were diluted in 6 µL PEM buffer, containing 1 mM GTP and 0.5% glutaraldehyde, mixed with anti-fade mounting media (P36934, Invitrogen, Eugene, USA), and examined under a confocal LSM 980 Airyscan microscope (Carl Zeiss AG, Oberkochen, Germany)."}, "[3]": {"test_system": "α,β-tubulin", "assay": "In vitro quantification of polymeric vs. soluble tubulin fractions in EA.hy926 cells", "assay_type": "cell-based, human", "settings": "EA.hy926, 1 µM, 6 h; DMSO control 2.33 ± 0.14", "method": "To assess the early effects on the microtubule cytoskeleton in vitro, EA.hy926 cells were cultured for 24 h in 6-cm dishes (3 × 10^5 cells). They were exposed to […] (control), 1 μM CA-4, paclitaxel, or increasing concentrations of 26Z (50, 100, 250, 2500, 10,000 nM) for 6 h. Cells were washed with PBS and lysed directly in the dishes with hypotonic lysis buffer (20 mM Tris-HCl, 1 mM MgCl2, 2 mM EGTA, 0.5% Triton X-100, glycerol 10%, pH 6.8), supplemented with protease inhibitors (2 μg/mL leupeptin, 2 μg/mL pepstatin, 0.4 mM Na vanadate, 0.5 mM PMSF, 1 mM DTT), for 3 min at 30 °C. The soluble fraction was immediately collected, mixed with 5× sample buffer, and boiled at 95 °C for 5 min. The polymerized fraction was collected directly from the culture dish following 10 min of incubation at room temperature with 1× sample buffer.\nFor the concentration-dependent assay, the cells were harvested by scraping and centrifuged at 1000 g for 5 min, and then lysed with the hypotonic cell lysis buffer for 10 min at room temperature. Tubulin fractions were obtained by centrifugation at 12,000 × g for 10 min.\nEqual volumes of the samples were subjected to 10% SDS-PAGE followed by western blotting. Detection of β-tubulin content was accomplished with an anti-β-tubulin mouse monoclonal antibody (sc-101527, Santa Cruz Biotechnology)."}, "[4]": {"test_system": "EA.hy926 cells", "assay": "In vitro cell migration (wound-healing) assay", "assay_type": "cell-based, human", "settings": "EA.hy926, 50 nM, 24 h", "method": "A total of 3 × 10^5 EA.hy926 cells were seeded in a 12-well plate and grown close to the confluence. The cell monolayer was gently scraped with a P200 pipette tip, creating a wound area around 1-mm wide. Cells were washed twice with fresh medium and treated with test compounds diluted in growth media to the corresponding sub-toxic concentrations. Images were acquired at 0 and 24 h following treatment. After incubation for 24 h, the scratch wound width was measured and recorded, and then compared with the initial scratch wound width at 0 h. Using the ImageJ image processing program (ImageJ150-WIN-Java8), the size of the denuded area in pixels was determined at each time point from the digital images."}, "[5]": {"test_system": "EA.hy926 cells", "assay": "Matrigel tube disruption assay", "assay_type": "cell-based, human", "settings": "EA.hy926 on Matrigel, IC50 concentration, 24 h of treatment, compared with time 0", "method": "The tube formation assay was performed in 96-well plates coated with 40 µL BD Matrigel™ (basement membrane matrix), following the manufacturer’s instruction (BD Biosciences). A total of 2 × 10^4 EA.hy926 cells was re-suspended in growth medium and added to each well in a final volume of 100 µL. Tube formation was visualized directly using a light microscope. Images were captured using a phase-contrast microscope and quantitation was performed using the WimTube application of the Wimasis online image analysis platform (https://www.wimasis.com/en/products/13/WimTube; accessed on 1 June 2021)."}, "[6]": {"test_system": "EA.hy926 cells", "assay": "Clonogenic survival assay", "assay_type": "cell-based, human", "settings": "72 h treatment + 6 days recovery; for decrease in colony number: EA.hy926, 250 nM; for reduction in colony formation: EA.hy926, 2.5, 10 and 25 µM", "method": "EA.hy926 cells were seeded at 300 cells/well on a 6-well plate and incubated for 24 h. The cells were treated with different concentrations of test compounds for 72 h. After six additional days of growth in a fresh medium to form visible colonies, cells were washed with phosphate-buffered saline (PBS, pH 7.4) and stained with crystal violet (0.5%, w/v) in 6% glutaraldehyde. After 30 min of incubation, the plates were washed with tap water, dried, photographed, and analyzed using ImageJ [79]. Raw data were normalized to the corresponding DMSO control for each independent experiment. After normalization, statistically significant differences for colony-forming efficiency (CFE) values versus […] were calculated."}, "[7]": {"settings": "Homo sapiens, EA.hy 926, 72 h of treatment"}}, "data": [{"smiles": "COc1ccc(/C=C\\c2ccc3sc(=O)n(C)c3c2)cc1OC", "note": "[Compound 20Z, (Z)-5-(3,4-Dimethoxystyryl)-3-methyl-2(3H)-benzothiazolone]", "values": [{"measurement": "IC50", "setting": "[1]; [7]", "result": "14.6 ± 1.75", "unit": "µM"}]}, {"smiles": "COc1ccc(/C=C\\c2cccc3sc(=O)n(C)c23)cc1OC", "note": "[Compound 16Z, (Z)-4-(3,4-Dimethoxystyryl)-3-methyl-2(3H)-benzothiazolone]", "values": [{"measurement": "IC50", "setting": "[1]; [7]", "result": "25.8 ± 3.11", "unit": "µM"}]}, {"smiles": "COc1ccc(/C=C\\c2ccc3sc(=O)n(C)c3c2)cc1", "note": "[Compound 19Z, (Z)-5-(4-Methoxystyryl)-3-methyl-2(3H)-benzothiazolone]", "values": [{"measurement": "IC50", "setting": "[1]; [7]", "result": "12 ± 2.49", "unit": "µM"}]}, {"smiles": "COc1cc(/C=C\\c2cccc3sc(=O)n(C)c23)cc(OC)c1OC", "note": "[Compound 18Z, (Z)-3-Methyl-4-(3,4,5-trimethoxystyryl)-2(3H)-benzothiazolone]", "values": [{"measurement": "IC50", "setting": "[1]; [7]", "result": "15.6 ± 1.16", "unit": "µM"}]}, {"smiles": "COc1cc(/C=C\\c2ccc3sc(=O)n(C)c3c2)cc(OC)c1", "note": "[Compound 21Z, (Z)-5-(3,5-Dimethoxystyryl)-3-methyl-2(3H)-benzothiazolone]", "values": [{"measurement": "IC50", "setting": "[1]; [7]", "result": "10.8 ± 0.62", "unit": "µM"}]}, {"smiles": "CC(=O)O[C@H]1C(=O)[C@@]2(C)[C@H]([C@H](OC(=O)c3ccccc3)[C@]3(O)C[C@H](OC(=O)[C@H](O)[C@@H](NC(=O)c4ccccc4)c4ccccc4)C(C)=C1C3(C)C)[C@]1(OC(C)=O)CO[C@@H]1C[C@@H]2O", "note": "[paclitaxel, reference compound]", "values": [{"measurement": "fluorescent microtubule fiber formation", "setting": "[2]", "result": "promoted the formation of microtubule fibers"}, {"measurement": "soluble vs. polymerized tubulin ratio", "setting": "[3]", "result": "0.51 ± 0.19"}]}, {"smiles": "COc1cc(/C=C\\c2cccc3c2sc(=O)n3C)cc(OC)c1OC", "note": "[Compound 27Z, (E/Z)-3-Methyl-7-(3,4,5-Trimethoxystyryl)-2(3H)-Benzothiazolone]", "values": [{"measurement": "remaining mean wound opened area", "setting": "[4]", "result": 3, "unit": "%"}, {"measurement": "IC50", "setting": "[1]; [7]", "result": "0.3 ± 0.05", "unit": "µM"}, {"measurement": "reduction in cumulative tube length", "setting": "[5]", "result": "~ 70%"}, {"measurement": "decrease in colony number", "setting": "[6]", "result": 75, "unit": "%"}, {"measurement": "reduction in colony formation", "setting": "[6]", "result": "about 100%"}, {"measurement": "melting point", "result": "155 to 156", "unit": "°C"}, {"measurement": "soluble vs. polymerized tubulin ratio", "setting": "[3]", "result": "1.82 ± 0.36"}]}, {"smiles": "COc1cc(/C=C\\c2ccc3sc(=O)n(C)c3c2)cc(OC)c1OC", "note": "[Compound 22Z, (Z)-3-Methyl-5-(3,4,5-trimethoxystyryl)-2(3H)-benzothiazolone]", "values": [{"measurement": "IC50", "setting": "[1]; [7]", "result": "9.43 ± 0.92", "unit": "µM"}]}, {"smiles": "COc1ccc(/C=C\\c2ccc3c(c2)sc(=O)n3C)cc1", "note": "[Compound 23Z, (Z)-6-(4-Methoxystyryl)-3-methyl-2(3H)-benzothiazolone]", "values": [{"measurement": "IC50", "setting": "[1]; [7]", "result": "19.8 ± 3.45", "unit": "µM"}]}, {"smiles": "COc1cc(/C=C\\c2ccc3c(c2)sc(=O)n3C)cc(OC)c1", "note": "[Compound 25Z, (Z)-6-(3,5-Dimethoxystyryl)-3-methyl-2(3H)-benzothiazolone]", "values": [{"measurement": "remaining mean wound opened area", "setting": "[4]", "result": 22.4, "unit": "%"}, {"measurement": "IC50", "setting": "[1]; [7]", "result": "1.88 ± 0.18", "unit": "µM"}, {"measurement": "decrease in colony number", "setting": "[6]", "result": 55, "unit": "%"}, {"measurement": "reduction in colony formation", "setting": "[6]", "result": "about 100%"}]}, {"smiles": "COc1ccc(/C=C\\c2cccc3sc(=O)n(C)c23)cc1", "note": "[Compound 15Z, (E/Z)-4-(4-Methoxystyryl)-3-Methyl-2(3H)-Benzothiazolone]", "values": [{"measurement": "IC50", "setting": "[1]; 72 h of treatment", "result": "22 ± 4.57", "unit": "µM"}]}, {"smiles": "COc1cc(/C=C/c2ccc3c(c2)sc(=O)n3C)cc(OC)c1OC", "note": "[Compound 26E, (E/Z)-3-Methyl-6-(3,4,5-Trimethoxystyryl)-2(3H)-Benzothiazolone]", "values": [{"measurement": "IC50", "setting": "[1]; 72 h of treatment", "result": "38.2 ± 5.35", "unit": "µM"}]}, {"smiles": "COc1cc(/C=C\\c2cccc3sc(=O)n(C)c23)cc(OC)c1", "note": "[Compound 17Z, (Z)-4-(3,5-Dimethoxystyryl)-3-methyl-2(3H)-benzothiazolone]", "values": [{"measurement": "IC50", "setting": "[1]; [7]", "result": "19.5 ± 2.71", "unit": "µM"}]}, {"smiles": "COc1ccc(/C=C\\c2ccc3c(c2)sc(=O)n3C)cc1OC", "note": "[Compound 24Z, (Z)-6-(3,4-Dimethoxystyryl)-3-methyl-2(3H)-benzothiazolone]", "values": [{"measurement": "IC50", "setting": "[1]; [7]", "result": "9.28 ± 1.13", "unit": "µM"}]}]}
